Results from patent publication US4051253A, “Microbicidal nitrofuryl compounds” (Byk Gulden Lomberg Chemische Fabrik GmbH, priority 1974, dated 1977).
In brackets after ≈: the same amount, converted by molar mass. Read-outs that look alike come from different tables or passages of the source.

Columns and labels:
Trichomonas foetus = assay: Infection tests with Trichomonas foetus in mice; type: in vivo; conditions: for % of Animals Dying After Infection (Mean Value): stomach tube, 3 successive days, NMRI mice; for animals survived / survival rate: dose of 6.25 mg/kg, mice infected with T. foetus; for activity against T. foetus compared with metronidazol (in words): infected mice
in vivo = conditions: mouse
Klebs. pneum. PCI 602 = assay: microbe, parasite or virus in culture; type: cell-based; conditions: for MBC: read-out: Concentration from which subcultures no longer started; for MIC: read-out: Minimum inhibiting concentration (MHK), series dilution test
E. coli 6106 = assay: microbe, parasite or virus in culture; type: cell-based; conditions: for MIC: read-out: Minimum inhibiting concentration (MHK), series dilution test
Ps. aeruginosa 2 = assay: microbe, parasite or virus in culture; type: cell-based; conditions: for MIC: read-out: Minimum inhibiting concentration (MHK), series dilution test
Staph. aur. SG 511 = assay: microbe, parasite or virus in culture; type: cell-based; conditions: for MIC: read-out: Minimum inhibiting concentration (MHK), series dilution test
Staph. aur. PCI 1203 = assay: microbe, parasite or virus in culture; type: cell-based; conditions: for MBC: read-out: Concentration from which subcultures no longer started; for MIC: read-out: Minimum inhibiting concentration (MHK), series dilution test
streptococci group A 807 = assay: microbe, parasite or virus in culture; type: cell-based; conditions: for MIC: read-out: Minimum inhibiting concentration (MHK), series dilution test
streptoc. group B 779 = assay: microbe, parasite or virus in culture; type: cell-based; conditions: for MBC: read-out: Concentration from which subcultures no longer started; for MIC: read-out: Minimum inhibiting concentration (MHK), series dilution test
streptococci group C 805 = assay: microbe, parasite or virus in culture; type: cell-based; conditions: for MBC: read-out: Concentration from which subcultures no longer started; for MIC: read-out: Minimum inhibiting concentration (MHK), series dilution test
enterococci = assay: microbe, parasite or virus in culture; type: cell-based; conditions: for MIC: read-out: Minimum inhibiting concentration (MHK), series dilution test
C. Albicans 49 = assay: microbe, parasite or virus in culture; type: cell-based; conditions: Candida albicans; for MIC: read-out: Minimum inhibiting concentration (MHK), series dilution test
C. Paracrusei 45 = assay: microbe, parasite or virus in culture; type: cell-based; conditions: for MBC: read-out: Concentration from which subcultures no longer started; for MIC: read-out: Minimum inhibiting concentration (MHK), series dilution test
[1] = system: 9 bacteria and 2 yeast strains; assay: In vitro tests with 9 bacteria and 2 yeast strains (summary); type: cell-based; conditions: Table 2
[2] = system: Serratia marcescens strain HY/a 21
[3] = subcultures applied after 48 h, read after 24 h
[4] = 24 h, read-out: Concentration from which subcultures no longer started, subcultures applied after 24 h, read after 24 h
[5] = 48 h, read-out: Concentration from which subcultures no longer started, subcultures applied after 48 h, read after 48 h
[6] = read-out: Concentration from which subcultures no longer started, subcultures applied after 24 h, read after 48 h
[7] = read-out: Concentration from which subcultures no longer started, subcultures applied after 48 h, read after 24 h

Cc1ccccc1C(=O)NN=CC=Cc1ccc([N+](=O)[O-])o1 [A, 5-nitro-2-[(o-toluoylhydrazono)propen-1-yl]furan]
% of Animals Dying After Infection (Mean Value) (Trichomonas foetus; 3.12 mg/kg): 91.66%
% of Animals Dying After Infection (Mean Value) (Trichomonas foetus; 6.25 mg/kg): 36.33%
% of Animals Dying After Infection (Mean Value) (Trichomonas foetus; 12.5 mg/kg): 3.33%
animals survived / survival rate (Trichomonas foetus): 63.3%
activity against T. foetus compared with metronidazol (in words) (Trichomonas foetus): substantially better activity in mice infected with T. foetus
LD50 (in vivo): > 2000 mg/kg
MBC (Klebs. pneum. PCI 602; 24 h): 31.2 µg/mL (≈ 104 µM)
MIC (Klebs. pneum. PCI 602; 24 h): 7.8 µg/mL (≈ 26.1 µM)
MBC (Klebs. pneum. PCI 602; 48 h): 31.2 µg/mL (≈ 104 µM)
MIC (Klebs. pneum. PCI 602; 48 h): 7.8 µg/mL (≈ 26.1 µM)
MBC (Klebs. pneum. PCI 602): 31.2 µg/mL (≈ 104 µM)
Concentration from which subcultures no longer started (Klebs. pneum. PCI 602; [3]): 31.25 µg/mL
MBC (E. coli 6106; Escherichia coli, 6106, 24 h, read-out: Concentration from which subcultures no longer started): 62.5 µg/mL (≈ 209 µM)
MIC (E. coli 6106; Escherichia coli, 6106, 24 h): 31.2 µg/mL (≈ 104 µM)
MBC (E. coli 6106; Escherichia coli, 6106, 48 h, read-out: Concentration from which subcultures no longer started): 62.5 µg/mL (≈ 209 µM)
MIC (E. coli 6106; Escherichia coli, 6106, 48 h): 62.5 µg/mL (≈ 209 µM)
MBC (E. coli 6106; Escherichia coli, 6106, read-out: Concentration from which subcultures no longer started): 62.5 µg/mL (≈ 209 µM)
Concentration from which subcultures no longer started (E. coli 6106; [3]): 62.5 µg/mL
MBC (Ps. aeruginosa 2; Pseudomonas aeruginosa, 2, 24 h, read-out: Concentration from which subcultures no longer started): 250 µg/mL (≈ 835 µM)
MIC (Ps. aeruginosa 2; Pseudomonas aeruginosa, 2, 24 h): 250 µg/mL (≈ 835 µM)
MBC (Ps. aeruginosa 2; Pseudomonas aeruginosa, 2, 48 h, read-out: Concentration from which subcultures no longer started): 250 µg/mL (≈ 835 µM)
MIC (Ps. aeruginosa 2; Pseudomonas aeruginosa, 2, 48 h): 250 µg/mL (≈ 835 µM)
MBC (Ps. aeruginosa 2; Pseudomonas aeruginosa, 2, read-out: Concentration from which subcultures no longer started): 250 µg/mL (≈ 835 µM)
Concentration from which subcultures no longer started (Ps. aeruginosa 2; [3]): 250 µg/mL
MBC (Staph. aur. SG 511; [4]): 125 µg/mL (≈ 418 µM)
MIC (Staph. aur. SG 511; 24 h): 31.2 µg/mL (≈ 104 µM)
MBC (Staph. aur. SG 511; [5]): 31.2 µg/mL (≈ 104 µM)
MIC (Staph. aur. SG 511; 48 h): 31.2 µg/mL (≈ 104 µM)
MBC (Staph. aur. SG 511; [6]): 125 µg/mL (≈ 418 µM)
MBC (Staph. aur. SG 511; [7]): 31.2 µg/mL (≈ 104 µM)
MBC (Staph. aur. PCI 1203; 24 h): 31.2 µg/mL (≈ 104 µM)
MIC (Staph. aur. PCI 1203; 24 h): 15.6 µg/mL (≈ 52.1 µM)
MBC (Staph. aur. PCI 1203; 48 h): 31.2 µg/mL (≈ 104 µM)
MIC (Staph. aur. PCI 1203; 48 h): 31.2 µg/mL (≈ 104 µM)
MBC (Staph. aur. PCI 1203): 31.2 µg/mL (≈ 104 µM)
Concentration from which subcultures no longer started (Staph. aur. PCI 1203; [3]): 31.25 µg/mL
MBC (streptococci group A 807; [4]): 125 µg/mL (≈ 418 µM)
MIC (streptococci group A 807; 24 h): 31.2 µg/mL (≈ 104 µM)
MBC (streptococci group A 807; [5]): 125 µg/mL (≈ 418 µM)
MIC (streptococci group A 807; 48 h): 31.2 µg/mL (≈ 104 µM)
MBC (streptococci group A 807; [6]): 125 µg/mL (≈ 418 µM)
MBC (streptococci group A 807; [7]): 62.5 µg/mL (≈ 209 µM)
MBC (streptoc. group B 779; 24 h): 500 µg/mL (≈ 1670 µM)
MIC (streptoc. group B 779; 24 h): 250 µg/mL (≈ 835 µM)
MBC (streptoc. group B 779; 48 h): 500 µg/mL (≈ 1670 µM)
MIC (streptoc. group B 779; 48 h): 500 µg/mL (≈ 1670 µM)
MBC (streptoc. group B 779): 500 µg/mL (≈ 1670 µM)
Concentration from which subcultures no longer started (streptoc. group B 779; [3]): 500 µg/mL
MBC (streptococci group C 805; 24 h): 500 µg/mL (≈ 1670 µM)
MIC (streptococci group C 805; 24 h): 250 µg/mL (≈ 835 µM)
MBC (streptococci group C 805; 48 h): 500 µg/mL (≈ 1670 µM)
MIC (streptococci group C 805; 48 h): 250 µg/mL (≈ 835 µM)
MBC (streptococci group C 805): 500 µg/mL (≈ 1670 µM)
Concentration from which subcultures no longer started (streptococci group C 805; [3]): 500 µg/mL
MBC (enterococci; [4]): 250 µg/mL (≈ 835 µM)
MIC (enterococci; 24 h): 62.5 µg/mL (≈ 209 µM)
MBC (enterococci; [5]): 500 µg/mL (≈ 1670 µM)
MIC (enterococci; 48 h): 250 µg/mL (≈ 835 µM)
MBC (enterococci; [6]): 250 µg/mL (≈ 835 µM)
MBC (enterococci; [7]): 500 µg/mL (≈ 1670 µM)
MBC (C. Albicans 49; [4]): 62.5 µg/mL (≈ 209 µM)
MIC (C. Albicans 49; 24 h): 62.5 µg/mL (≈ 209 µM)
MBC (C. Albicans 49; [5]): 125 µg/mL (≈ 418 µM)
MIC (C. Albicans 49; 48 h): 62.5 µg/mL (≈ 209 µM)
MBC (C. Albicans 49; [6]): 62.5 µg/mL (≈ 209 µM)
MBC (C. Albicans 49; [7]): 125 µg/mL (≈ 418 µM)
MBC (C. Paracrusei 45; 24 h): 125 µg/mL (≈ 418 µM)
MIC (C. Paracrusei 45; 24 h): 62.5 µg/mL (≈ 209 µM)
MBC (C. Paracrusei 45; 48 h): 125 µg/mL (≈ 418 µM)
MIC (C. Paracrusei 45; 48 h): 125 µg/mL (≈ 418 µM)
MBC (C. Paracrusei 45): 125 µg/mL (≈ 418 µM)
Concentration from which subcultures no longer started (C. Paracrusei 45; [3]): 125 µg/mL
in vitro antibacterial/antiyeast effect compared with metronidazol (in words) [1]: substantially more favorable picture
Mutation frequency [2]: 0
mutagenicity, spot test (in words) ([2]; Table 3a): no mutants induced by A are observed
Mutants/ml, Test (S. typhimurium G 46; 200 mg/kg per os): 0 Mutants/ml
Mutants/ml, Test (S. typhimurium G 46; 400 mg/kg per os): 0 Mutants/ml
mutagenicity, host mediated assay (in words) (S. typhimurium G 46; Table 3b): no mutants induced by A are observed
Mutation frequency in test animals (S. typhimurium G 46; in vivo): 0

CCc1ccccc1C(=O)NN=CC=Cc1ccc([N+](=O)[O-])o1 [B, 2-[(o-ethylbenzoylhydrazono)propen-1-yl]-5-nitrofuran]
% of Animals Dying After Infection (Mean Value) (Trichomonas foetus; 1.56 mg/kg): 86%
% of Animals Dying After Infection (Mean Value) (Trichomonas foetus; 3.12 mg/kg): 62%
% of Animals Dying After Infection (Mean Value) (Trichomonas foetus; 6.25 mg/kg): 46%
% of Animals Dying After Infection (Mean Value) (Trichomonas foetus; 12 mg/kg): 6%
% of Animals Dying After Infection (Mean Value) (Trichomonas foetus; 25 mg/kg): 0%
animals survived / survival rate (Trichomonas foetus): 54%
activity against T. foetus compared with metronidazol (in words) (Trichomonas foetus): substantially better activity in mice infected with T. foetus
LD50 (in vivo): > 2000 mg/kg

O=C1CCO1 [β-propiolactone, reference compound]
Mutants, Test [2]: 6.6 × 10^2 colonies/ml
Mutation frequency [2]: 3.4 × 10^-6
